Assay results: patent publication US20220110985A1, “NUTRITIONAL COMPOSITION COMPRISING 2'FUCOSYLLACTOSE AND 3'GALACTOSYLLACTOSE” (N.V. Nutricia, priority 2019, published 2022)

Assays:
human PBMC, unstimulated = test: Cytokine production of unstimulated PBMC (IL10, CCL20); format: cell-based; conditions: for CCL20 level as compared to blanc control, in words: unstimulated PBMC; for Relative CCL 20 mean (s.e.): 0.1 w/v % 3′-GL
Excerpt: Isolation of PBMC from healthy donors: Human peripheral blood mononuclear cells (PBMC) from healthy donors were isolated from buffy coats (Sanquin, Amsterdam, the Netherlands). PBMC were obtained by centrifugation using Leucosep tubes (Greiner Bio-One). […] After lysis, the PBMC were resuspended in freezing medium (70% RPMI 1640 medium (Gibco, Thermo Fisher Technologies) supplemented with 10% heat-inactivated FCS and 100 U/ml penicillin-streptomycin, 20% heat-inactivated FCS and 10% DMSO (Sigma)) and cryopreserved. PBMC activation model: PBMC (0.2·10^6 cell/well) were cultured in 96-well flat bottom plates (Corning). For 24 hours the cells were pre-incubated with 2'-FL (Jennewein), 3'-GL (0-0.3% w/v; […] Sigma Aldrich) and combinations thereof. Subsequently, the cells were CD3/CD28-activated (Pelicluster CD3 and Pelicluster CD28, Sanquin) for an additional 24 hours. After incubation, IFNγ was measured by ELISA in the supernatants (see below). […] Roche) and/or 10% Triton (5 μl; negative control). […] Cytokine production of PBMC: PBMC were incubated with indicated reagents. After incubation, the supernatants were collected and IL2, IL6, IL10, IL13, IL21, TNFα, IFNγ, MIF, CCL1, CCL13, CCL17, CCL20, CCL22 and CXCL8-11 levels were measured by conducting a validated multiplex immunoassay based on Luminex technology (xMAP, Luminex Austin Tex. USA). Acquisition was conducted with the Biorad […] (Biorad laboratories, Hercules USA) in combination with xPONENT software version 4.2 (Luminex). Data was analyzed by 5-parametric curve fitting using Bio-Plex Manager software, version 6.1.1 (Biorad). After PBMC stimulation, cell culture supernatants were collected, after which cytokine responses were measured in order to test immune responsiveness of the cells. The levels of cytokines measured in stimulated conditions were corrected for the (low) levels of the cytokines measured in non-stimulated conditions. In addition, since each donor is reacting in its own efficiency onto the T cell stimulus, we calculated the individual index of cytokine response by dividing the intervention induced response by the basal stimulated response.

[1] = test system: infant intestinal microbiota; test: quad-SHIME infant intestinal microbiota model (SCFA, glycoprofile); format: cell-based, human infant faecal inoculum; design: Butyrate (Mean ± SD) / Iso-Butyrate (Mean ± SD) / Acetate (Mean ± SD): unit not given here; conditions: distal colon
Excerpt: A faecal sample from a healthy infant born via C-section, exclusively breastfed with no history of antibiotic usage, was used as inoculum to simulate the infant intestinal microbiota in the colon compartments of a quad-SHIME®—a dynamic model of the human gastrointestinal tract comprises 4 SHIME® units running in parallel and each SHIME® unit is composed of 3 reactors simulating the stomach and small intestine, proximal and distal colons.

fecal slurry microbiota = test: Anaerobic fermentation of fecal slurry (BioLector Pro): acidification, microbiota composition; format: cell-based, human infant; conditions: no pathogen spiking
Method: (§1) Anaerobic fermentation of fecal slurry samples was tested in a BioLector Pro microfluidics mini multifermentor. Faecal slurry samples were collected from breast fed infants and from formula fed infants. These faecal slurry samples were processed by adding 0.6 grams feces in 40 ml Baby Reichardt V.6 medium+mucus+Ammonium sulfate+lactate and acetate. The resulting solutions were inserted to the BioLector Pro microfluidics mini multifermentor. The test legs were supplemented with 3-GL, 2′-FL, 3′-GL+2′-FL, and GOS/FOS. The control leg was supplemented with sterile water.
(§2) In addition the test legs were supplemented with Clostridium difficile C153 (difficile agar), Salmonella enteriditis S29 (XLD agar), Cronobacter sakasakii E71 (chromogenic agar) or Klebsiella pneumonia K2 (Simons citrate inositol agar). For every NDO and for the control also a pathogen free culture was prepared.
After fermentation the fermented solutions were tested for SCFA content (in particular acetic acid, propionic acid, butyric acid and isobutyric acid), ammonia content, lactate content and pathogen concentration. Also DNA-isolation+identification and 16s sequencing was performed to determine the composition of the microbiota.
A 32 well plate that can handle low pH was used. The wells of this plate were filled with fecal solution. […]

Bifidobacteria = test: Fecal slurry fermentation: total Bifidobacteria; format: cell-based
Method: as §1
A 32 well plate that can handle low pH was used. The wells of this plate were filled with fecal solution. 2.5% (w/v) of the different sterile carbohydrate solutions (3′-GL, 2′-FL, 2′-FL/3′-GL (2.0+0.5%). and Glucose were added to the fecal slurry according to a template.
The experiment was started, and pH setpoint was either 5.5 (facial inoculum from infant 1, vaginally born, breast fed) or pH 6.0 (Inoculum from infant 2, vaginally born, breast fed) with continuous pH regulation, and temperature 37° C., humidity 85%, OD control. At 4, 8 and 24 hours a sample is taken for CFU determination on TOS-propionate MUP agar (total Bifidobacteria), XLD agar for Salmonella enteriditis S29, and Simons citrate inositol agar for Klebsiella pneumonia K2 and for SCFA, D- and L Lactate and ammonia analysis. Fecal pellet was used for 16s DNA sequencing.

[2] = test system: Salmonella enteriditis S29; test: Fecal slurry fermentation spiked with pathogens: Salmonella; format: cell-based
Method: as §1, §2
(§3) A 32 well plate that can handle low pH was used. The wells of this plate were filled with fecal solution. 2.5% (w/v) of the different sterile carbohydrate solutions (3′-GL, 2′-FL, 2′-FL/3′-GL (2.0+0.5%). and Glucose were added to the fecal slurry according to a template. […]

Klebsiella pneumonia K2 = test: Fecal slurry fermentation spiked with pathogens: Klebsiella; format: cell-based; conditions: inoculum of baby 2, spiked
Method: as §1, §2, §3

[3] = unstimulated, 0.2% w/v 2′-FL, 0.2 mM butyrate, blanc = 1, observed

Compound: C[C@@H]1O[C@@H](O[C@H]2[C@H](O[C@H]3[C@H](O)[C@@H](O)C(O)O[C@@H]3CO)O[C@H](CO)[C@H](O)[C@@H]2O)[C@@H](O)[C@H](O)[C@@H]1O (stereo partly drawn) [2′-FL, α-L-Fuc-(1→2)-β-D-Gal-(1→4)-D-Glc]
- IL10 level as compared to blanc control, in words (human PBMC, unstimulated; 0.2% 2′-FL, 0.2 mM butyrate): significantly (p<0.05) increased level
- CCL20 level as compared to blanc control, in words (human PBMC, unstimulated): increased level
- Relative IL10 level, mean (se) (human PBMC, unstimulated; [3]): 3.361 (1.867)
- Relative CCL 20 mean (s.e.) (human PBMC, unstimulated; [3]): 2.586 (0.281)
- Acetate (Mean ± SD) ([1]; D1-D3): 38.67 ± 10.25
- Butyrate (Mean ± SD) ([1]; D1-D3): 0 ± 0
- Iso-Butyrate (Mean ± SD) ([1]; D1-D3): 0 ± 0
- Propionate (Mean ± SD) ([1]; D1-D3): 10.17 ± 3.01
- Acetate (Mean ± SD) ([1]; D4-D11): 26.22 ± 0.97
- Butyrate (Mean ± SD) ([1]; D4-D11): 0.74 ± 0.49
- Iso-Butyrate (Mean ± SD) ([1]; D4-D11): 0.68 ± 0.75
- Propionate (Mean ± SD) ([1]; D4-D11): 6.58 ± 0.49
- Acetate (Mean ± SD) ([1]; D12-D15): 22.96 ± 1.04
- Butyrate (Mean ± SD) ([1]; D12-D15): 0.99 ± 0.09
- Iso-Butyrate (Mean ± SD) ([1]; D12-D15): 0.93 ± 0.21
- Propionate (Mean ± SD) ([1]; D12-D15): 6.13 ± 0.63
- butyrate generation, in words ([1]; relative to control and scGOS/lcFOS groups): generated earlier in the distal colon and at a higher concentration
- extent of fermentation as measured by NaOH consumption, i.e. acid production (fecal slurry microbiota; both inocula): slower and lower acidification
- Growth of bifidobacteria (Bifidobacteria): Growth of bifidobacteria was observed
- Salmonella growth ([2]; inoculum of baby 1, spiked): most restricted
- Salmonella growth ([2]; inoculum of baby 2, spiked): most restricted

Compound: Gal (beta 1-3)-Gal (beta 1-4)-Glc [3′-GL]
- CCL20 level as compared to blanc control, in words (human PBMC, unstimulated): did not have a statistically significant effect
- Relative CCL 20 mean (s.e.) (human PBMC, unstimulated; [3]): 1.164 (0.212)
- rate of initial acidification (fecal slurry microbiota): high
- Growth of bifidobacteria (Bifidobacteria): Growth of bifidobacteria was observed
- effect on bifidobacteria (Bifidobacteria; inoculum of baby 2): highest
- Klebsiella growth (Klebsiella pneumonia K2): most inhibited
